Measured values taken from patent US20190022092A1, “Therapeutic Combinations of a BTK Inhibitor and a GITR Binding Molecule, a 4-1BB Agonist, or an OX40 Agonist” (Acerta Pharma B.V., priority 2015, published 2019).

Columns and labels:
[1] = test system: KPC pancreatic cancer; assay: KPC pancreatic cancer model (tumor volumes, tumor tissue immune cells); assay type: in vivo; settings: tumor tissues
[2] = test system: GPVI platelet aggregation; assay: GPVI platelet aggregation studies; assay type: cell-based; settings: read-out: IC50, GPVI platelet aggregation
[3] = test system: 80 known pharmacologic targets (G-protein-coupled receptors, nuclear receptors, proteases, ion channels); assay: Binding assays on 80 known pharmacologic targets at 10 μM; settings: screened at 10 μM
Source text: (§1) Formula (2) was well tolerated in standard in vivo Good Laboratory Practices (GLP) studies of pharmacologic safety.

[4] = test system: EGFR phosphorylation (p-EGFR Y1069) in A431 cells; assay: EGF-induced EGFR phosphorylation in A431 cells (phosphoflow); assay type: cell-based, human
Procedure: Phosphoflow cytometry was performed with p-EGFR (Y1069). MFI values were normalized so that 100% represents the p-EGFR level in stimulated cells without inhibitor, while 0% represents the unstimulated/no drug condition.

[5] = GLP functional observation battery; assay type: in vivo; settings: rats, doses through 300 mg/kg
Source text: as §1

[6] = test system: NK cell lysis of Raji cells; assay: Rituximab ADCC 51Cr release assay, Raji targets; assay type: cell-based, human; settings: 1 μM; NK cells, E:T 25:1
Source text: (§2) Cell culture conditions were as follows. […] The HER18 cells were maintained in DEM supplemented with fetal bovine serum, penicillin-streptomycin and. Prior to assay, HER18 cells were harvested using trypsin-EDTA, washed with phosphate-buffered saline (PBS) containing 5% serum and viable cells were counted. For culture of primary target cells, peripheral blood from CLL patients was subject to density centrifugation to obtain peripheral blood mononuclear cells (PBMC). Cell preparations were washed and then subject to positive selection of CD5^+CD19^+ CLL cells using magnetic beads (MACS, Miltenyi Biotech). Cell preparations were used fresh after selection. NK cells from CLL patients and healthy volunteers were enriched from peripheral blood collected in sodium citrate anticoagulant tubes and then subject to density centrifugation. Removal of non NK cells was performed using negative selection by MACS separation. Freshly isolated NK cells were washed three times, enumerated, and then used immediately for ADCC assays.
ADCC assays were performed as follows. Briefly, target cells (Raji or primary CLL) were labeled by incubation at 37° C. with 100 μCi ^51Cr for 4 hours prior to co-culture with NK cells. Cells were washed, enumerated, and then added in triplicate to prepared 96-well plates containing treated NK cells at an effector:target (E:T) ratio of 25:1. […] Cultures were incubated at 37° C. for 4 hours, and then centrifuged. Supernatants were harvested and ^51Cr release was measured by liquid scintillation counting. All experiments were performed in triplicate.

[7] = test system: NK cell lysis of primary CLL cells; assay: Rituximab ADCC 51Cr release assay, primary autologous CLL targets; assay type: cell-based, human; settings: 1 μM; E:T 25:1
Source text: as §2
ADCC assays were performed as follows. Briefly, target cells (Raji or primary CLL) were labeled by incubation at 37° C. with 100 μCi ^51Cr for 4 hours prior to co-culture with NK cells. […] Supernatants were harvested and ^51Cr release was measured by liquid scintillation counting. […]

[8] = test system: CD8+ T cell function (B lymphoblast targets); assay: Cytotoxic T cell (CTL) assay; assay type: cell-based; settings: CTL generated 4 days with 500 nM inhibitor
Procedure: Without being bound by any theory, CD8^+ T cells have two primary effector functions: (1) produce large amounts of IFN-γ (which activates macrophages), and (2) cytolytic activity. […] The targets were B lymphoblasts from lipopolysaccharide (LPS) treated cultures. The assay was performed by incubating different ratios of effectors:targets for 4 hours.

[9] = test system: NK cells and MDSC subsets in peripheral blood; assay: Flow cytometry of peripheral blood cell subsets in CLL patients; assay type: in vivo, human; settings: patients with falling ALC counts; 28 days of dosing
Procedure: PBMCs were stained with monoclonal antibodies conjugated to fluorescent tags (flourochromes) to identify cell subsets via flow cytometry. Non-viable cells were excluded from the analysis using the dye 7-aminoactinomycin D (7-AAD). To produce the metric of percent change, the following steps were taken. First, each cell subset was defined by hierarchical flow cytometry gating. Then, the change in frequency (between day 1 and day 28) was calculated for each cell subset. MDSC subsets were measured as a % of all myeloid cells. T cell subsets were measured as a % of all CD3^+ cells, and NK cells were measured as a % of all live CD45^+ cells. […] A cycle is 28 days. A trend is observed wherein patients with decreasing ALC % had increasing MDSC (monocytic) %. This may include patients who had quickly resolving lymphocytosis and those with no initial lymphocytosis. […] This may include patients who had quickly resolving lymphocytosis and those having no initial lymphocytosis. The effects in FIG. 47 to FIG. 50 are observed in multiple cohorts, at doses including 100 mg BID, 200 mg QD, and 400 mg QD. In FIG. 51 and FIG. 52, the effects on NK cells and MDSC cells are compared to a number of other markers versus % change in ALC at C1D28 and C2D28. […] The effects on NK cells and MDSC cells are observed to be much more pronounced than on any of these other markers.

[10] = test system: CXCL12 and CCL2; assay: Plasma chemokines in treated CLL patients; assay type: in vivo, human; settings: CLL patients on treatment

In the case of `CC#CC(=O)N1CCC[C@H]1c1nc(-c2ccc(C(=O)Nc3ccccn3)cc2)c2c(N)nccn12` [Formula (2), (S)-4-(8-amino-3-(1-(but-2-ynoyl)pyrrolidin-2-yl)imidazo[1,5-a]pyrazin-1-yl)-N-(pyridin-2-yl)benzamide], the “immunosuppressive MDSCs (Gr1+Ly6CHi)” value [1] is reported as “significantly reduced”, the “immunosuppressive TAMs (CD11b+Ly6ClowF4/80+Csf1r+)” value [1] is reported as “significantly reduced” and the “immunosuppressive Tregs (CD4+CD25+FoxP3+)” value [1] is reported as “significantly reduced”. For the same compound, the IC50 [2] was 1150 nM, the “activity in binding assays on 80 known pharmacologic targets” value [3] was “significant activity only against the A3 adenosine receptor” and the “inhibition of in vitro EGFR phosphorylation” value ([4]; 10 μM, A431 human epidermoid cancer cell line) was “no inhibition”. The inhibition at 10 µM ([4]; Homo sapiens, A-431, A431 cells, 2 h, EGF 100 ng/mL 5 min) was 7%, the “functional observation battery: neurobehavioral effects, body temperature” value [5] was “no adverse effects” and the “effect on rituximab-mediated ADCC, Raji cells” value [6] was “not inhibited”. The “effect on rituximab-mediated ADCC, primary CLL samples (autologous)” value [7] was “not inhibited”, the “CD8+ T cell function as % cytotoxicity” value [8] was “no effect” and the “NK cells and monocytic MDSC subsets in peripheral blood” value [9] was “increase in frequency”. The “plasma CCL2 levels” value [10] was “significant decrease” and the “plasma CXCL12 levels” value [10] was “significant decrease”.
